Data taken from US20240083933A1, “DISACCHARIDES FOR TREATING BONE DISEASES” (UNIVERSITE DE PICARDIE JULES VERNE, priority 2020, published 2024).

Test system: HOb cells
Assay: Alkaline phosphatase (ALP) enzymatic activity assay, HOb
Format: cell-based, human
Settings: 7 days post-treatment, 30 μM
Source text: ALP is an enzyme synthesized by osteoblasts. It hydrolyses phosphoric esters which inhibit the mineralization by releasing a hydroxyl group and a phosphate. The osteoblasts produce matrix vesicles, reservoirs of alkaline phosphatases and ions, which, when released into the extracellular medium, would initiate the mineralization of the osteoid tissue by promoting the local concentrations of calcium ions and phosphates. Cells have been seeded in 6-well plates at 63700 cells/well for MC3T3-E1 and at 182000 cells/well for HOb.
After the PBS rinses, 50 μl of ALP Assay Buffer were added to the wells, the bottom of the wells was scraped and then the 50 μl were taken. A centrifugation for 3 minutes at 13000 G was carried out to remove the insoluble material. In a 96-well plate, 10 μl of each sample to be tested are placed with 70 μl of the ALP Assay buffer and 50 μl of the 5 mM pNPP solution. In parallel, the calibration range was prepared by placing, in the same 96-well plate. The reaction was incubated for 60 min at 25° C., shielded from light. The reaction was stopped by adding 20 μl of the Stop Solution. The optical density was measured at 405 nm.
After the ALP enzymatic activity assay, a protein assay was performed in order to normalize the results of the ALP assay depending on the number of proteins. […] The optical density was measured at 565 nm to determine the amount of proteins.

CCCO[C@H]1OC(CO)[C@@H](O[C@@H]2OC(CO)[C@@H](O)C(O)C2NC(C)=O)C(O)C1OC(C)=O (stereo partly drawn) [DP2, n-propyl, 2-O-acetyl-α-D-Glucopyranoside, 4-O-(2-acetamido-2-deoxy-β-D-glucopyranosyl)]
ALP enzymatic activity relative to the mineralized medium alone (100%) (listed as DP2R0): 210.494±14.979%
ALP enzymatic activity relative to the mineralized medium alone (100%) (listed as DP2R2): 149.749%
